“Also recorded” adds a separate entry of the source. Counter-ions that a name gives are not always drawn.
Columns and labels:
[1] = Dynamic vapour sorption (DVS) of selected salts (Example 8); assay type: physicochemical
Procedure, shortened: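 Sorption/desorption isotherms on 20–50 mg sample at 25°C after 60 min at 0% RH: 5% steps to 30%, 10% steps to 90%, then reverse. Equilibrium criterion dm/dt 0.002%/min; kinetic and isotherm curves derived.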

[2] = Equilibrium humidity evaluation 75% RH/40° C., 10 days (Example 8, Experiment 6); assay type: physicochemical; settings: for change in chemical purity (trended HPLC): after 10 days; for powder diffraction pattern versus input (form stability): t=5 days and t=10 days
Procedure, shortened: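 Tabernanthalog salt powders (100 mg) were spread evenly in open vials and held at 40 °C and 75% RH. Sub-samples taken at 5 and 10 days were analysed by ^1H NMR, HPLC, XRPD, DSC, TGA and PLM for phase change, chemical degradation and residual solvent.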

[3] = Solubility determinations in SIF buffers FaSSIF, FeSSIF, FaSSGF (Example 8, Experiment 5); settings: for solubility at 24 h: 37 °C, thermodynamic from solid; for fate of the suspended phase in FaSSGF (XRPD, 1H NMR): up to 24 h
Procedure, shortened: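 Suspensions in FaSSIF, FeSSIF or FaSSGF held at 37° C for 24 h, sampled at set time points and centrifuged. Pellets checked by XRPD, wet and dried, for form change.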

[4] = SIF buffer solubility panel (FaSSIF, FeSSIF, FaSSGF); assay type: physicochemical
[5] = Examination of variability of fusion temperature of sorbate Form A (DSC); assay type: physicochemical; settings: listed as Experiment 13-Sample C1
Procedure: The factors that were assessed to explain the observed variability in fusion temperature found amongst Form A samples were sample loading, preferred orientation and particle size/homogeneity (Table 271). A weak relationship between sample loading and melt onset was observed, the remainder of the factors examined, appeared to be unrelated.
DSC data were collected from 25 to 220C at a scan rate of at 10° C. min^−1 (Table 292).

[6] = 75% RH/40° C., listed as Tabernanthalog sorbate salt (Form A)
[7] = DSC 25-220° C. at 10° C. min^−1, batches of sorbate salt Form A
[8] = DSC 25 to 220C at 10° C. min−1, tabernanthalog sorbate Form A samples

## COc1ccc2c3c([nH]c2c1)CCN(C)CC3 [tabernanthalog sorbate salt]
[1]; 0 to 90 to 0% RH, 25° C., dm/dt 0.002%/min
  DVS sorption/desorption isotherm: slightly hygroscopic up to 80% RH
[1]; desorption, 0.0% RH
  DVS 0 to 90 to 0% RH (dm/dt <0.002%), mass change: −0.06%
[1]; desorption, 0.0% RH, listed as tabernanthalog sorbate salt (Form A)
  DVS mass change: 0.06%
[1]; desorption, 0.0% RH, listed as tabernanthalog sorbate salt (Form I)
  DVS mass change: −0.06%
[1]; desorption, 5.0% RH
  DVS 0 to 90 to 0% RH (dm/dt <0.002%), mass change: −0.05%
[1]; desorption, 5.0% RH, listed as tabernanthalog sorbate salt (Form A)
  DVS mass change: 0.05%
[1]; desorption, 5.0% RH, listed as tabernanthalog sorbate salt (Form I)
  DVS mass change: −0.05%
[1]; desorption, 10.0% RH
  DVS 0 to 90 to 0% RH (dm/dt <0.002%), mass change: −0.04%
[1]; desorption, 10.0% RH, listed as tabernanthalog sorbate salt (Form A)
  DVS mass change: 0.04%
[1]; desorption, 10.0% RH, listed as tabernanthalog sorbate salt (Form I)
  DVS mass change: −0.04%
[1]; desorption, 15.0% RH
  DVS 0 to 90 to 0% RH (dm/dt <0.002%), mass change: −0.03%
[1]; desorption, 15.0% RH, listed as tabernanthalog sorbate salt (Form A)
  DVS mass change: 0.03%
[1]; desorption, 15.0% RH, listed as tabernanthalog sorbate salt (Form I)
  DVS mass change: −0.03%
[1]; desorption, 20.0% RH
  DVS 0 to 90 to 0% RH (dm/dt <0.002%), mass change: −0.02%
[1]; desorption, 20.0% RH, listed as tabernanthalog sorbate salt (Form A)
  DVS mass change: 0.02%
[1]; desorption, 20.0% RH, listed as tabernanthalog sorbate salt (Form I)
  DVS mass change: −0.02%
[1]; desorption, 25.0% RH
  DVS 0 to 90 to 0% RH (dm/dt <0.002%), mass change: −0.007%
[1]; desorption, 25.0% RH, listed as tabernanthalog sorbate salt (Form A)
  DVS mass change: 0.00%
[1]; desorption, 25.0% RH, listed as tabernanthalog sorbate salt (Form I)
  DVS mass change: −0.007%
[1]; desorption, 30.0% RH
  DVS 0 to 90 to 0% RH (dm/dt <0.002%), mass change: 0.00%
  DVS mass change: 0.00%
[1]; desorption, 40.0% RH
  DVS 0 to 90 to 0% RH (dm/dt <0.002%), mass change: 0.03%
  DVS mass change: 0.03%
[1]; desorption, 50.0% RH
  DVS 0 to 90 to 0% RH (dm/dt <0.002%), mass change: 0.06%
  DVS mass change: 0.06%
[1]; desorption, 60.0% RH
  DVS 0 to 90 to 0% RH (dm/dt <0.002%), mass change: 0.18%
  DVS mass change: 0.18%
[1]; desorption, 70.0% RH
  DVS 0 to 90 to 0% RH (dm/dt <0.002%), mass change: 0.30%
  DVS mass change: 0.30%
[1]; desorption, 80.0% RH
  DVS 0 to 90 to 0% RH (dm/dt <0.002%), mass change: 0.48%
  DVS mass change: 0.48%
[1]; desorption, 90.0% RH
  DVS 0 to 90 to 0% RH (dm/dt <0.002%), mass change: 0.98%
  DVS mass change: 0.98%
[1]; sorption, 0.0% RH
  DVS 0 to 90 to 0% RH (dm/dt <0.002%), mass change: 0.00%
[1]; sorption, 0.0% RH, dm/dt<0.002%
  DVS mass change: 0.00%
[1]; sorption, 5.0% RH
  DVS 0 to 90 to 0% RH (dm/dt <0.002%), mass change: 0.0%
  DVS mass change: 0.0%
[1]; sorption, 10.0% RH
  DVS 0 to 90 to 0% RH (dm/dt <0.002%), mass change: 0.01%
  DVS mass change: 0.01%
[1]; sorption, 15.0% RH
  DVS 0 to 90 to 0% RH (dm/dt <0.002%), mass change: 0.01%
  DVS mass change: 0.01%
[1]; sorption, 20.0% RH
  DVS 0 to 90 to 0% RH (dm/dt <0.002%), mass change: 0.02%
  DVS mass change: 0.02%
[1]; sorption, 25.0% RH
  DVS 0 to 90 to 0% RH (dm/dt <0.002%), mass change: 0.03%
  DVS mass change: 0.03%
[1]; sorption, 30.0% RH
  DVS 0 to 90 to 0% RH (dm/dt <0.002%), mass change: 0.03%
  DVS mass change: 0.03%
[1]; sorption, 40.0% RH
  DVS 0 to 90 to 0% RH (dm/dt <0.002%), mass change: 0.05%
  DVS mass change: 0.05%
[1]; sorption, 50.0% RH
  DVS 0 to 90 to 0% RH (dm/dt <0.002%), mass change: 0.07%
  DVS mass change: 0.07%
[1]; sorption, 60.0% RH
  DVS 0 to 90 to 0% RH (dm/dt <0.002%), mass change: 0.10%
  DVS mass change: 0.10%
[1]; sorption, 70.0% RH
  DVS 0 to 90 to 0% RH (dm/dt <0.002%), mass change: 0.14%
  DVS mass change: 0.14%
[1]; sorption, 80.0% RH
  DVS 0 to 90 to 0% RH (dm/dt <0.002%), mass change: 0.21%
  DVS mass change: 0.21%
[1]; sorption, 90.0% RH
  DVS 0 to 90 to 0% RH (dm/dt <0.002%), mass change: 0.98%
  DVS mass change: 0.98%
[2]; 75% RH at 40° C., 10 days
  CP (chemical purity) after storage: 99.70 % area
[2]; 75% RH/40° C.
  change in chemical purity (trended HPLC): did not reduce significantly
  powder diffraction pattern versus input (form stability): matched the diffractogram of the input material
[2]; [6]
  change in chemical purity (trended HPLC): lowest decrease in chemical purity
  powder diffraction pattern versus input (form stability): Form A was stable
[2]; 75% RH/40° C., listed as tabernanthalog sorbate
  change in chemical purity (trended HPLC): lowest decrease in chemical purity
[2]; 75% RH/40° C., t=5 d and t=10 d
  water uptake / hydrate formation (TGA, DSC): did not exhibit any water absorption events
[2]; Sorbate salt, input before humidity exposure
  Tabernanthalog RRT = 1.00 (trended HPLC data, chemical purity): 99.76
[2]; input of 6-D
  CP (chemical purity) before storage: 99.76 % area
[3]; 37° C. up to 1 h
  Solubility in SIF buffers: FeSSIF: Insoluble
[3]; 37° C. up to 24 h
  Solubility in SIF buffers: FaSSGF: Insoluble
[3]; pH 5, fessif
  solubility at 24 h: > 30 mg/mL
[3]; pH 6.5, fassif
  solubility at 24 h: > 30 mg/mL
[3]; FaSSIF, FeSSIF, FaSSGF
  solubility in the SIF buffers (in words): highly soluble in the SIF buffers examined; also recorded: highly soluble in the SIF buffers used, apart from FaSSGF
[3]; FaSSIF, FeSSIF, FaSSGF, 37° C., 24 h
  behaviour at 30 mg/ml in SIF buffers: only remained suspended in FaSSGF
[3]; FaSSIF, FeSSIF, FaSSGF, listed as Tabernanthalog sorbate salt (Form A)
  solubility in the SIF buffers (in words): readily soluble in FaSSIF and FeSSIF during 24 h
[3]; tabernanthalog sorbate salt, input before FaSSGF
  Tabernanthalog RRT = 1.00 (trended HPLC data, chemical purity): 99.41
[3]; 37° C.
  fate of the suspended phase in FaSSGF (XRPD, 1H NMR): supported disproportionation
[3]; 37° C., listed as Tabernanthalog sorbate salt (Form A)
  fate of the suspended phase in FaSSGF (XRPD, 1H NMR): only exhibited disproportionation after 24 h in FaSSGF
[4]; FaSSGF, 37° C., up to 24 h (timepoints t=0, 1 h, 3 h, 6 h, 24 h)
  solubility in FaSSGF: remained suspended
[4]; SIF buffers
  disproportionation in the SIF buffers: no observed disproportionation
[4]; SIF buffers overall
  solubility in the SIF buffers: highly soluble in the SIF buffers (apart from FaSSGF)
[5]; [7]
  Endset: 144.5 °C
  melt enthalpy: −105.8 Jg^−1
  melt onset: 139.9 °C
  peak: 142.5 °C
[5]; [8]
  melt enthalpy: −105.78 Jg-1
  melt onset: 139.87 °C
[5]; DSC melt endset, 25 to 220C at 10° C. min−1, tabernanthalog sorbate Form A samples
  Endset: 144.46 °C
[5]; DSC melt peak, 25 to 220C at 10° C. min−1, tabernanthalog sorbate Form A samples
  peak: 142.50 °C

Source: patent US20230257385A1, “SALT AND SOLID FORMS OF TABERNANTHALOG” (priority 2021, published 2023)
